Experimental data: ChEMBL document CHEMBL4507305, “Data for DCP probe TP-024” (2021)

Assays:
[1] = system: Receptor-type tyrosine-protein kinase FLT3 (Homo sapiens), P36888 [UNDEFINED MUTATION]; conditions: Compound concentration 1000.0 nM
[2] = target: 5-hydroxytryptamine receptor 2A (Homo sapiens) (UniProt P28223); conditions: Compound concentration 10.0 uM
[3] = system: Leucine-rich repeat serine/threonine-protein kinase 2 (Homo sapiens), Q5S007 [G2019S]; conditions: Compound concentration 1000.0 nM
[4] = target: Testis-specific serine/threonine-protein kinase 1 (Homo sapiens) (UniProt Q9BXA7); conditions: Compound concentration 1000.0 nM
[5] = system: Tyrosine-protein kinase ABL1 (Homo sapiens), P00519 [E255K]; conditions: Compound concentration 1000.0 nM
[6] = target: Myosin light chain kinase 2, skeletal/cardiac muscle (Homo sapiens) (UniProt Q9H1R3); conditions: Compound concentration 1000.0 nM
[7] = target: Phosphatidylinositol 3-kinase C2 domain-containing subunit gamma (Homo sapiens) (UniProt O75747); conditions: Compound concentration 1000.0 nM
[8] = target: BMP-2-inducible protein kinase (Homo sapiens) (UniProt Q9NSY1); conditions: Compound concentration 1000.0 nM
[9] = target: Non-receptor tyrosine-protein kinase TNK1 (Homo sapiens) (UniProt Q13470); conditions: Compound concentration 1000.0 nM
[10] = target: Hormonally up-regulated neu tumor-associated kinase (Homo sapiens) (UniProt P57058); conditions: Compound concentration 1000.0 nM
[11] = target: Interleukin-1 receptor-associated kinase 1 (Homo sapiens) (UniProt P51617); conditions: Compound concentration 1000.0 nM
[12] = target: Rhodopsin kinase GRK1 (Homo sapiens) (UniProt Q15835); conditions: Compound concentration 1000.0 nM
[13] = target: RAC-beta serine/threonine-protein kinase (Homo sapiens) (UniProt P31751); conditions: Compound concentration 1000.0 nM
[14] = system: Receptor-type tyrosine-protein kinase FLT3 (Homo sapiens), P36888 [D835Y]; conditions: Compound concentration 1000.0 nM
[15] = system: Mast/stem cell growth factor receptor Kit (Homo sapiens), P10721 [V559D]; conditions: Compound concentration 1000.0 nM
[16] = target: Serine/threonine-protein kinase LATS1 (Homo sapiens) (UniProt O95835); conditions: Compound concentration 1000.0 nM
[17] = system: Tyrosine-protein kinase ABL1 (Homo sapiens), P00519 [T315I]; conditions: Compound concentration 1000.0 nM
[18] = target: Dual specificity mitogen-activated protein kinase kinase 7 (Homo sapiens) (UniProt O14733); conditions: Compound concentration 1000.0 nM
[19] = target: Activin receptor type-1B (Homo sapiens) (UniProt P36896); conditions: Compound concentration 1000.0 nM
[20] = target: Mitogen-activated protein kinase kinase kinase 11 (Homo sapiens) (UniProt Q16584); conditions: Compound concentration 1000.0 nM
[21] = target: Muscle, skeletal receptor tyrosine-protein kinase (Homo sapiens) (UniProt O15146); conditions: Compound concentration 1000.0 nM
[22] = target: Tyrosine-protein kinase ABL1 (Homo sapiens) (UniProt P00519); conditions: Compound concentration 1000.0 nM
[23] = target: Serine/threonine-protein kinase D3 (Homo sapiens) (UniProt O94806); conditions: Compound concentration 1000.0 nM
[24] = target: Serine/threonine-protein kinase TAO2 (Homo sapiens) (UniProt Q9UL54); conditions: Compound concentration 1000.0 nM
[25] = target: MAP/microtubule affinity-regulating kinase 4 (Homo sapiens) (UniProt Q96L34); conditions: Compound concentration 1000.0 nM
[26] = target: Fibroblast growth factor receptor 4 (Homo sapiens) (UniProt P22455); conditions: Compound concentration 1000.0 nM
[27] = target: Serine/threonine-protein kinase Sgk1 (Homo sapiens) (UniProt O00141); conditions: Compound concentration 1000.0 nM
[28] = target: Tyrosine-protein kinase SYK (Homo sapiens) (UniProt P43405); conditions: Compound concentration 1000.0 nM
[29] = target: Serine/threonine-protein kinase B-raf (Homo sapiens) (UniProt P15056); conditions: Compound concentration 1000.0 nM
[30] = target: Serine/threonine-protein kinase PAK 4 (Homo sapiens) (UniProt O96013); conditions: Compound concentration 1000.0 nM
[31] = target: Serine/threonine-protein kinase pim-2 (Homo sapiens) (UniProt Q9P1W9); conditions: Compound concentration 1000.0 nM
[32] = target: Alpha-2C adrenergic receptor (Homo sapiens) (UniProt P18825); conditions: Compound concentration 10.0 uM
[33] = target: LIM domain kinase 1 (Homo sapiens) (UniProt P53667); conditions: Compound concentration 1000.0 nM
[34] = target: Macrophage colony-stimulating factor 1 receptor (Homo sapiens) (UniProt P07333); conditions: Compound concentration 1000.0 nM
[35] = target: Tyrosine-protein kinase JAK2 (Homo sapiens) (UniProt O60674); conditions: Compound concentration 1000.0 nM
[36] = target: Homeodomain-interacting protein kinase 1 (Homo sapiens) (UniProt Q86Z02); conditions: Compound concentration 1000.0 nM
[37] = target: cAMP-dependent protein kinase catalytic subunit beta (Homo sapiens) (UniProt P22694); conditions: Compound concentration 1000.0 nM
[38] = target: Myosin light chain kinase, smooth muscle (Homo sapiens) (UniProt Q15746); conditions: Compound concentration 1000.0 nM
[39] = target: Activin receptor type-2A (Homo sapiens) (UniProt P27037); conditions: Compound concentration 1000.0 nM
[40] = target: Ankyrin repeat and protein kinase domain-containing protein 1 (Homo sapiens) (UniProt Q8NFD2); conditions: Compound concentration 1000.0 nM
[41] = target: Uncharacterized serine/threonine-protein kinase SBK3 (Homo sapiens) (UniProt P0C264); conditions: Compound concentration 1000.0 nM
[42] = target: Tyrosine-protein kinase Fyn (Homo sapiens) (UniProt P06241); conditions: Compound concentration 1000.0 nM
[43] = target: Histamine H3 receptor (Homo sapiens) (UniProt Q9Y5N1); conditions: Compound concentration 10.0 uM
[44] = target: Protein kinase C epsilon type (Homo sapiens) (UniProt Q02156); conditions: Compound concentration 1000.0 nM
[45] = target: Macrophage colony-stimulating factor 1 receptor (Homo sapiens) (UniProt P07333); conditions: Compound concentration 1000.0 nM; remark: listed apart in the source

Sequence of Macrophage colony-stimulating factor 1 receptor (Homo sapiens) (P07333 whole entry): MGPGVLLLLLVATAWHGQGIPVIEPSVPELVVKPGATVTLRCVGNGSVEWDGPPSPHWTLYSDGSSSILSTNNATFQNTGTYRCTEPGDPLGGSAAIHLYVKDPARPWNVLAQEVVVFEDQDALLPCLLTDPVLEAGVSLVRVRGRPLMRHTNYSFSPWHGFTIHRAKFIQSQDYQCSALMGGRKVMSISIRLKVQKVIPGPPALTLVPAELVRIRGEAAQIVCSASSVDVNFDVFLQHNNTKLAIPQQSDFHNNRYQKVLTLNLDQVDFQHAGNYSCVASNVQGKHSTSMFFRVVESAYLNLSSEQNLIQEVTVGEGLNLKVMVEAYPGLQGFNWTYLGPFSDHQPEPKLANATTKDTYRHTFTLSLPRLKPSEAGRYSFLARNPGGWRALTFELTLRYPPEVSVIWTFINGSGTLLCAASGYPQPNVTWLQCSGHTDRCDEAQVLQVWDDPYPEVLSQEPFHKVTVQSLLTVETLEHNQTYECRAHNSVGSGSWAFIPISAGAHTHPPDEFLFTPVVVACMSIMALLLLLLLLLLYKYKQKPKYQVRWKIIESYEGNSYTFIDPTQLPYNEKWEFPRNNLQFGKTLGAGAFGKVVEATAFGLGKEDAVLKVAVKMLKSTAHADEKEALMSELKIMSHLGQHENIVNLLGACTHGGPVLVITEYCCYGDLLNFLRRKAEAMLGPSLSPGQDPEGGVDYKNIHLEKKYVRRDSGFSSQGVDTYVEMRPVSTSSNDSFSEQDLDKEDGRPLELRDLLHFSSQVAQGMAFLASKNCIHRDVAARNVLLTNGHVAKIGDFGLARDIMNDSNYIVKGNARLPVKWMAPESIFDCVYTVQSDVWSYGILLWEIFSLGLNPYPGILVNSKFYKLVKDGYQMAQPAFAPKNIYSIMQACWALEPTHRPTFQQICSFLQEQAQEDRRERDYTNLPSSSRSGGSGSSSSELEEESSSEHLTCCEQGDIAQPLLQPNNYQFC
Sequence of Mitogen-activated protein kinase kinase kinase 11 (Homo sapiens) (Q16584 whole entry, looked up): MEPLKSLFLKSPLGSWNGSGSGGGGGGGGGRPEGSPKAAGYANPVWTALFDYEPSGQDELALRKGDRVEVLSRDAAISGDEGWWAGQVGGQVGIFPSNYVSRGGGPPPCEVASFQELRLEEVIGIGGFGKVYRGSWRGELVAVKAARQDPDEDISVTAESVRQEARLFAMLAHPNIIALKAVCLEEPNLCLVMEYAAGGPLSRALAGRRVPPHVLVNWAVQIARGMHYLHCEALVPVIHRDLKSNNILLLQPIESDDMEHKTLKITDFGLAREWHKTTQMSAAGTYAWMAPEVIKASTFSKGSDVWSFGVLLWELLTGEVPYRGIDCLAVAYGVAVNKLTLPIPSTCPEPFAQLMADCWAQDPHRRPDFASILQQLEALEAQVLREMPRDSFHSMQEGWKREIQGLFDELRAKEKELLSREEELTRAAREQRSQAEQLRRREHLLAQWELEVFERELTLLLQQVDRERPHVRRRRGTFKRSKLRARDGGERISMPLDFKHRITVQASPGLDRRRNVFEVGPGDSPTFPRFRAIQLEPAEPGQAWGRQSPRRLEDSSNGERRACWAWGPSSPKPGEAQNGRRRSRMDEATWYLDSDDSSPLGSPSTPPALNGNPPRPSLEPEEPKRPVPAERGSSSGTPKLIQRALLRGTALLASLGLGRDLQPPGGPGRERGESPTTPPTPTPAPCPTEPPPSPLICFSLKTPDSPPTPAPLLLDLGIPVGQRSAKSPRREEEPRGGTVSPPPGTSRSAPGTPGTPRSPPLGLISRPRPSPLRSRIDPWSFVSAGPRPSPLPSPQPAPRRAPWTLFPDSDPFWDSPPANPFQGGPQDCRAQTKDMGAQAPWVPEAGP
Sequence of 5-hydroxytryptamine receptor 2A (Homo sapiens) (P28223 whole entry): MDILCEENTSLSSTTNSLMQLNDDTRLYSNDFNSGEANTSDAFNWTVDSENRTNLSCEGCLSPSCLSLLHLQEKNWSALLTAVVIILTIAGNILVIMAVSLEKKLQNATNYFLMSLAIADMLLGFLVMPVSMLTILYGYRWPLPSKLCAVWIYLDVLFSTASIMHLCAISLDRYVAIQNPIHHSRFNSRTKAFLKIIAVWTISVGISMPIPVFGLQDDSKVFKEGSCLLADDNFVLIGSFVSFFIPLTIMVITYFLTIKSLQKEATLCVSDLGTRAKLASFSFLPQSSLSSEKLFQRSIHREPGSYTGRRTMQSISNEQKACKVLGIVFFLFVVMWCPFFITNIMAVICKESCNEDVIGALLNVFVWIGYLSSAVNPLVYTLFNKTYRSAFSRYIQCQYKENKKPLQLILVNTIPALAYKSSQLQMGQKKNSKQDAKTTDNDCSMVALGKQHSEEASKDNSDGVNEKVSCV
Sequence of Interleukin-1 receptor-associated kinase 1 (Homo sapiens) (P51617 whole entry, looked up): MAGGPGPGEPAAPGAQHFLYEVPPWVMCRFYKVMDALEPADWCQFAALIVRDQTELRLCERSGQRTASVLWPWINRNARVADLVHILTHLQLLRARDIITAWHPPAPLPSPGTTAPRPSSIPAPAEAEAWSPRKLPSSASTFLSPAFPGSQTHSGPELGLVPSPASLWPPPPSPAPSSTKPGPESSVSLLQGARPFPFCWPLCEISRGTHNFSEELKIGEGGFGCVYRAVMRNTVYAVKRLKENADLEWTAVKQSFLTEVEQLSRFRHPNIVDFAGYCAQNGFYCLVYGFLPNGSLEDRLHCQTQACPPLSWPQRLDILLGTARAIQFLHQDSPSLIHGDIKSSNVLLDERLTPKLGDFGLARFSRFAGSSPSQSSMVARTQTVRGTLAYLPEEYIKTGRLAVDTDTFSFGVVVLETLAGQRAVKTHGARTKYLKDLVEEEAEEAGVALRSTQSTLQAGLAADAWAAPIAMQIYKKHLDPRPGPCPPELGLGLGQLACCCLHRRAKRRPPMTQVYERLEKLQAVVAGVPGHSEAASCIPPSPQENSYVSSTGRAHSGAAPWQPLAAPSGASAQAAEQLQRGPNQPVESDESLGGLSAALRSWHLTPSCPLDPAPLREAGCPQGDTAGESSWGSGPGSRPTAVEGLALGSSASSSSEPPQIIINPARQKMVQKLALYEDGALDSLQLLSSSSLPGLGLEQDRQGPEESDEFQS
Sequence of Myosin light chain kinase, smooth muscle (Homo sapiens) (Q15746 whole entry): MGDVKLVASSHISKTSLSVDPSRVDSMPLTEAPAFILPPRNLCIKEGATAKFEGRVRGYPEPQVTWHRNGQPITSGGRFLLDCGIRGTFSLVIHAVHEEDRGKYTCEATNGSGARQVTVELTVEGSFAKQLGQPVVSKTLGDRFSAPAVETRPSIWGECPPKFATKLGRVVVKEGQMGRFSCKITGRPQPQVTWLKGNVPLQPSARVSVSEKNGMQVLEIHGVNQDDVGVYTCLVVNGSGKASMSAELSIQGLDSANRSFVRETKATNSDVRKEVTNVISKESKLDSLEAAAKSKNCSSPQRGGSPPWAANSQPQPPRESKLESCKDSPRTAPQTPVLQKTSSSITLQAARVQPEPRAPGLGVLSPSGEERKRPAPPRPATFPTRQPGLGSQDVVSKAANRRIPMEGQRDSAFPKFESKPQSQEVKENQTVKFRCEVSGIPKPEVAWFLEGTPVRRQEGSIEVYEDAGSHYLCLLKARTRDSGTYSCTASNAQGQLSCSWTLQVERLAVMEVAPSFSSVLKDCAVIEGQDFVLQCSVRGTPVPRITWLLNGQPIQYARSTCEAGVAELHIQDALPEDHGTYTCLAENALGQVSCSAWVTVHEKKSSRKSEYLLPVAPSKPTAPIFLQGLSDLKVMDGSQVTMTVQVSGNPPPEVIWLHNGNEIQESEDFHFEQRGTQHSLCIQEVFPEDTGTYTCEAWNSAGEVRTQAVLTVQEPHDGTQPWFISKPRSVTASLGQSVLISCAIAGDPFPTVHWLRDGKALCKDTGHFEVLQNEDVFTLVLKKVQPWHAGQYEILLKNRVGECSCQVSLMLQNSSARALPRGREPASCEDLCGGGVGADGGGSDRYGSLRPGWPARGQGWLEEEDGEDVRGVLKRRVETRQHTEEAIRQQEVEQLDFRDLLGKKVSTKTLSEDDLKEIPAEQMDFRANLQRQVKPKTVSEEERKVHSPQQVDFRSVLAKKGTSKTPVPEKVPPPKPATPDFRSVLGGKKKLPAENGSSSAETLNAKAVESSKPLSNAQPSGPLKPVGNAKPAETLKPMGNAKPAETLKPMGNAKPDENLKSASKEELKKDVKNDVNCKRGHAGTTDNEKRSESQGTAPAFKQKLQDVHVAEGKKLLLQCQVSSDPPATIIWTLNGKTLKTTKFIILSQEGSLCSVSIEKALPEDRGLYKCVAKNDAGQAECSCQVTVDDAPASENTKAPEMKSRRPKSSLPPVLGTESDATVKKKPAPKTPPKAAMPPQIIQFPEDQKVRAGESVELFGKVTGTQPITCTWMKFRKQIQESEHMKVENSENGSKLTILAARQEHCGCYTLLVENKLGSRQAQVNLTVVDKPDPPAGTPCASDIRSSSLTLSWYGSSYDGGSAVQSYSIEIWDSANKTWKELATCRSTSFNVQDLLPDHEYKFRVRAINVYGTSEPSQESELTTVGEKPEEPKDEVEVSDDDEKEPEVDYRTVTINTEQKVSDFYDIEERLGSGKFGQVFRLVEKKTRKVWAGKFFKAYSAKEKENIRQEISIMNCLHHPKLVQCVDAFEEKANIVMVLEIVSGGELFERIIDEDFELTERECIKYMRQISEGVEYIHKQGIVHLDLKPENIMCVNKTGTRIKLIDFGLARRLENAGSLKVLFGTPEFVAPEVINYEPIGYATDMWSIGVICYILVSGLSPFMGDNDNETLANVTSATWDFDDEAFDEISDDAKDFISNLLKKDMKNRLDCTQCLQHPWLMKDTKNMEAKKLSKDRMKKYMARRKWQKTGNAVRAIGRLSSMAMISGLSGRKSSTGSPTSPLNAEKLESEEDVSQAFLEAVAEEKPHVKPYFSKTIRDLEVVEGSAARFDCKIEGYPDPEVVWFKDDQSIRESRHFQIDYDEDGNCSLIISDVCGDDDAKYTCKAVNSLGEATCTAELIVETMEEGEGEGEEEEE

Cc1nc(Cc2cccc(C(F)(F)F)c2)sc1-c1ccc(C(N)=O)nc1 [TP-024n]
inactive: residual activity [1] 100% | inhibition [2] 20.4% | residual activity [3] 82% | residual activity [4] 54% | residual activity [5] 85% | residual activity [6] 77% | residual activity [7] 93% | residual activity [8] 100% | residual activity [9] 85% | residual activity [10] 90% | residual activity [11] 100% | residual activity [12] 98% | residual activity [13] 81% | residual activity [14] 92% | residual activity [15] 100% | residual activity [16] 100% | residual activity [17] 100% | residual activity [18] 100% | residual activity [19] 75% | residual activity [20] 100% | residual activity [21] 89% | residual activity [22] 98% | residual activity [23] 97% | residual activity [24] 86% | residual activity [25] 83% | residual activity [26] 100% | residual activity [27] 100% | residual activity [28] 100% | residual activity [29] 73% | residual activity [30] 96% | residual activity [31] 64% | inhibition [32] 8.38% | residual activity [33] 100% | residual activity [34] 85% | residual activity [35] 100% | residual activity [36] 92% | residual activity [37] 92% | residual activity [38] 95% | residual activity [39] 85% | residual activity [40] 95% | residual activity [41] 100% | residual activity [42] 100% | inhibition [43] 3.48% | residual activity [44] 100% | residual activity [45] 100%

Cc1cc(-n2nc(Cc3cc(F)cc(C(F)(F)F)c3)nc2C)ccc1C(N)=O [TP-024]
inactive: residual activity [1] 100% | inhibition [2] 10.5% | residual activity [3] 100% | residual activity [4] 90% | residual activity [5] 93% | residual activity [6] 91% | residual activity [7] 100% | residual activity [8] 100% | residual activity [9] 69% | residual activity [10] 89% | residual activity [11] 100% | residual activity [12] 87% | residual activity [13] 100% | residual activity [14] 100% | residual activity [15] 83% | residual activity [16] 100% | residual activity [17] 98% | residual activity [18] 100% | residual activity [19] 93% | residual activity [20] 84% | residual activity [21] 100% | residual activity [22] 100% | residual activity [23] 81% | residual activity [24] 91% | residual activity [25] 77% | residual activity [26] 100% | residual activity [27] 100% | residual activity [28] 87% | residual activity [29] 86% | residual activity [30] 100% | residual activity [31] 83% | inhibition [32] 9.76% | residual activity [33] 100% | residual activity [34] 100% | residual activity [35] 100% | residual activity [36] 92% | residual activity [37] 100% | residual activity [38] 100% | residual activity [39] 100% | residual activity [40] 100% | residual activity [41] 91% | residual activity [42] 100% | inhibition [43] 11.4% | residual activity [44] 100% | residual activity [45] 100%
